One block for each compound: values may come before it. Activity calls are given as the source filed them. No cut-off for these calls is given here.
How the values were obtained:
[1] = target: von Hippel-Lindau disease tumor suppressor (Homo sapiens, UniProt P40337); experiment: Inhibition of VHL (unknown origin)
NCI-H1792 [2] = experiment: Antiproliferative activity against human SMARCA4-wild type NCI-H1792 cells assessed as inhibition of cell growth measured after 7 days by WST-8 assay; assay type: functional; conditions: NCI-H1792, 168 h, time 7 day
[3] = Antiproliferative activity against human SMARCA4-deficient NCI-H838 cells assessed as inhibition of cell growth measured after 7 days by WST-8 assay; assay type: functional; conditions: NCI-H838, 168 h, time 7 day
[4] = Antiproliferative activity against human SMARCA4-deficient NCI-H1693 cells assessed as maximal inhibition of cell growth measured after 7 days by WST-8 assay relative to control; assay type: functional; conditions: time 7 day
[5] = Antiproliferative activity against human SMARCA4-deficient NCI-H1568 cells assessed as maximal inhibition of cell growth measured after 7 days by WST-8 assay relative to control; assay type: functional; conditions: time 7 day
SK-MEL-28 [6] = experiment: Antiproliferative activity against human SMARCA4-wild type SK-MEL-28 cells assessed as inhibition of cell growth measured after 7 days by WST-8 assay; assay type: functional; conditions: SK-MEL-28, 168 h, time 7 day
SK-MEL-28 [7] = experiment: Antiproliferative activity against human SMARCA4-wild type SK-MEL-28 cells assessed as maximal inhibition of cell growth measured after 7 days by WST-8 assay relative to control; assay type: functional; conditions: time 7 day
NCI-H1792 [8] = experiment: Antiproliferative activity against human SMARCA4-wild type NCI-H1792 cells assessed as maximal inhibition of cell growth measured after 7 days by WST-8 assay relative to control; assay type: functional; conditions: time 7 day
[9] = Antiproliferative activity against human SMARCA4-deficient NCI-H1568 cells assessed as inhibition of cell growth measured after 7 days by WST-8 assay; assay type: functional; conditions: NCI-H1568, 168 h, time 7 day
[10] = Antiproliferative activity against human SMARCA4-deficient NCI-H838 cells assessed as maximal inhibition of cell growth measured after 7 days by WST-8 assay relative to control; assay type: functional; conditions: time 7 day
NCI-H838 = experiment: In vivo anti-tumor activity against SMARCA4-deficient human NCI-H838 cells xenografted in SCID mouse assessed as assessed as inhibition of tumor growth at 10 to 30 mg/kg, iv weekly once; assay type: functional, organism-based; conditions: dose 10-30 mg/kg
SK-MEL-5 = experiment: Antiproliferative activity against human SMARCA4-deficient SK-MEL-5 cells assessed as inhibition of cell growth measured after 7 days by WST-8 assay; assay type: functional; conditions: SK-MEL-5, 168 h, time 7 day
[11] = Antiproliferative activity against human SMARCA4-deficient NCI-H1693 cells assessed as inhibition of cell growth measured after 7 days by WST-8 assay; assay type: functional; conditions: NCI-H1693, 168 h, time 7 day
[12] = Antiproliferative activity against human […] NCI-H1975 cells assessed as maximal inhibition of cell growth measured after 7 days by WST-8 assay relative to control; assay type: functional; conditions: time 7 day
[13] = Antiproliferative activity against human […] NCI-H1975 cells assessed as inhibition of cell growth measured after 7 days by WST-8 assay; assay type: functional; conditions: NCI-H1975, 168 h, time 7 day
[14] = Antiproliferative activity against human SMARCA4-deficient NCI-H1944 cells assessed as inhibition of cell growth measured after 7 days by WST-8 assay; assay type: functional; conditions: NCI-H1944, 168 h, time 7 day
[15] = Antiproliferative activity against human SMARCA4-deficient NCI-H1944 cells assessed as maximal inhibition of cell growth measured after 7 days by WST-8 assay relative to control; assay type: functional; conditions: time 7 day
[16] = target: T1, von Hippel-Lindau disease tumor suppressor/SWI/SNF-related matrix-associated actin-dependent regulator of chromatin subfamily A member 4 (Homo sapiens, UniProt P51532+P40337); experiment: PROTAC activity at SMARCA4/VHL1 in human HeLa cells assessed as protein degradation by Nano-Glo HiBiT lytic detection assay; assay type: cell-based
T1 sequence (P51532 whole entry): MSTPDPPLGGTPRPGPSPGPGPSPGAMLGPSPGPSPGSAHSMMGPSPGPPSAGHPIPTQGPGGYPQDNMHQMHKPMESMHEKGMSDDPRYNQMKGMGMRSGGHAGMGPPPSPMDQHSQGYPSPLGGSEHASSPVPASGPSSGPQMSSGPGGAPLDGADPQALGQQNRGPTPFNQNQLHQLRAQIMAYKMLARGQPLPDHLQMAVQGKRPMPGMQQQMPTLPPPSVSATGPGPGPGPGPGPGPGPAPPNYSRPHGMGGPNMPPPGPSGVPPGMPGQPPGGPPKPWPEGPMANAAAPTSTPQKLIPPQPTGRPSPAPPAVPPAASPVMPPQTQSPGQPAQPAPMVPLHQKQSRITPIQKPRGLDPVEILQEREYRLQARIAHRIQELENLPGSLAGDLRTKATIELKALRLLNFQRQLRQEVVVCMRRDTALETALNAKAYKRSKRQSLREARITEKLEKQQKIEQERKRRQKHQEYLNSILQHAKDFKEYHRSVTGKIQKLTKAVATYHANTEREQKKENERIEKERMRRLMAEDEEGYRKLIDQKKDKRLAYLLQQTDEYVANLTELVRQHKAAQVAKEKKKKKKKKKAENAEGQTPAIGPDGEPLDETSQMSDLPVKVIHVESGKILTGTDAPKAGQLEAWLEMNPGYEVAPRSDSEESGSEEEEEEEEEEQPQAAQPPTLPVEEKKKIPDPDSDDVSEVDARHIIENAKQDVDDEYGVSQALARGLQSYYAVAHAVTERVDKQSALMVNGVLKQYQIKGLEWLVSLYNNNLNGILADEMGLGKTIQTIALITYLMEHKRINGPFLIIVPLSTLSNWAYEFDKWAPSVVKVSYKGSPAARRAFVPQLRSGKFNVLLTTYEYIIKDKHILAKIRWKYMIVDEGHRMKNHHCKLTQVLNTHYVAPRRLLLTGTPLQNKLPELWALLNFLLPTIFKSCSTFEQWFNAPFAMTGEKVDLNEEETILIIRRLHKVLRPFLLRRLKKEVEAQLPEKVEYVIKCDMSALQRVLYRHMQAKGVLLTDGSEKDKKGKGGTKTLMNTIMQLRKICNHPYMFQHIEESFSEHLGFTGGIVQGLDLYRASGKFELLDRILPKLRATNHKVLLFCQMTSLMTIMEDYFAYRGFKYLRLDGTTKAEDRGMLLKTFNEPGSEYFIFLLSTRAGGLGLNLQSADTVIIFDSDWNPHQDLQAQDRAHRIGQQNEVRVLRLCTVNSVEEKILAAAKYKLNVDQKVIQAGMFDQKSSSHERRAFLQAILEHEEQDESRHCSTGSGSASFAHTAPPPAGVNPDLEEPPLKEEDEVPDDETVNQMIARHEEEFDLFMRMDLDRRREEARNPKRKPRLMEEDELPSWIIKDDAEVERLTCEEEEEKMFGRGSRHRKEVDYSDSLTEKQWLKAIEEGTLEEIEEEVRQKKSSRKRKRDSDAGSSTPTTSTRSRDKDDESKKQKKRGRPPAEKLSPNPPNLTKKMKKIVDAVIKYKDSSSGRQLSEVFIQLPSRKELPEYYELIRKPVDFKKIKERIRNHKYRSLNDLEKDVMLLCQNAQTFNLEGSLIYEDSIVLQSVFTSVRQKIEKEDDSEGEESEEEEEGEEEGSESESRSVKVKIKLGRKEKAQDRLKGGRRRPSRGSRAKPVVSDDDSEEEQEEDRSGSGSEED
T1 sequence (P40337 whole entry): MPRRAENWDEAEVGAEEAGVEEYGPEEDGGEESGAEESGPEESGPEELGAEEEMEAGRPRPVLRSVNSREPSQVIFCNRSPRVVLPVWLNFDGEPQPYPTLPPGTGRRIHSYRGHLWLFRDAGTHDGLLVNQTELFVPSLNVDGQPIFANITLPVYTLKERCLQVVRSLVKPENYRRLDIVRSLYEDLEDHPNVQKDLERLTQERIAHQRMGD

[17] = target: von Hippel-Lindau disease tumor suppressor/SWI/SNF-related matrix-associated actin-dependent regulator of chromatin subfamily A member 2 (Homo sapiens, UniProt P51531+P40337); experiment: PROTAC activity at SMARCA2/VHL1 in human HeLa cells assessed as protein degradation by Nano-Glo HiBiT lytic detection assay; assay type: cell-based
Chain of von Hippel-Lindau disease tumor suppressor/SWI/SNF-related matrix-associated actin-dependent regulator of chromatin subfamily A member 2 (P51531 whole entry): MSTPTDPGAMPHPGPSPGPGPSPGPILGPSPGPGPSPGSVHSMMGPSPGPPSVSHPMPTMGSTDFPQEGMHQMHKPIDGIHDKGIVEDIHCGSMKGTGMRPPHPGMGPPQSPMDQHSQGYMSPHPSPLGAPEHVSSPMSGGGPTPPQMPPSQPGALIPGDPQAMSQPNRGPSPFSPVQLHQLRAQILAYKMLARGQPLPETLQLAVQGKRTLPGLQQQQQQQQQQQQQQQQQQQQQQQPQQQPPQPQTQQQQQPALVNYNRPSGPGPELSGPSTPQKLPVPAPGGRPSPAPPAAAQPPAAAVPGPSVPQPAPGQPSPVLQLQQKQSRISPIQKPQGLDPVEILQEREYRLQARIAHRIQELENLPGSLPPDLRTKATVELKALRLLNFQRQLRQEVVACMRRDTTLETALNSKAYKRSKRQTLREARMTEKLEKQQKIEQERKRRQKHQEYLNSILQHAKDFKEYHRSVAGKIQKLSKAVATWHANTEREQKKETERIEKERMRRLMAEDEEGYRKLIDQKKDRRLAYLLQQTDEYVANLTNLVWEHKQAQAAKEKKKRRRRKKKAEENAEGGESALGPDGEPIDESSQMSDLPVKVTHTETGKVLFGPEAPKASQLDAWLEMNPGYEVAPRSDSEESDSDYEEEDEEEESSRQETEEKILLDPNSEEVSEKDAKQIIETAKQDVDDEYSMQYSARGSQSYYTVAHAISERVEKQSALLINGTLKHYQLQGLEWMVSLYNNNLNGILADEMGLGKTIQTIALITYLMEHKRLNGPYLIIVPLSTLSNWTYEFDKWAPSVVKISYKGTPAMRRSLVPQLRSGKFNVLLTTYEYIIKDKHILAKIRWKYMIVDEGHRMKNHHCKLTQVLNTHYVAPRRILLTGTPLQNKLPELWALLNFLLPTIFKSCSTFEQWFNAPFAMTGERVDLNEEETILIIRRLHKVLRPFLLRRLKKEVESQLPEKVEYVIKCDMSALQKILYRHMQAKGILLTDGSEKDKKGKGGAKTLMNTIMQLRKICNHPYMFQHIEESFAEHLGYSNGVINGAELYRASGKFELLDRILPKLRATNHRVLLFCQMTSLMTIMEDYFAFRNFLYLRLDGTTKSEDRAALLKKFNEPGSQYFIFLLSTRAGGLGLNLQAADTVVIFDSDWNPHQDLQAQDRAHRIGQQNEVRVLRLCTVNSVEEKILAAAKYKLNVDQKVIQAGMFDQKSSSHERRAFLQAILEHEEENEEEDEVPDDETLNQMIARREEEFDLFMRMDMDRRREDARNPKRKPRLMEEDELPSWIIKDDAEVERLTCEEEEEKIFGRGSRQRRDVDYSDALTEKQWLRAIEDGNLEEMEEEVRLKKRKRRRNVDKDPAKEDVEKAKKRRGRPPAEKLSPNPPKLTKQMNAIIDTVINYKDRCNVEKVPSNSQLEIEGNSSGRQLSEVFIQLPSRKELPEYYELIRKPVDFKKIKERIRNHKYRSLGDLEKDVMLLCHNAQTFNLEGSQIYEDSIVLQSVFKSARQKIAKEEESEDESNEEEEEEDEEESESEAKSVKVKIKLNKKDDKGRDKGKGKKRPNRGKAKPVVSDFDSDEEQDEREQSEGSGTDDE
Chain of von Hippel-Lindau disease tumor suppressor/SWI/SNF-related matrix-associated actin-dependent regulator of chromatin subfamily A member 2 (P40337 whole entry): as the sequence (P40337 whole entry) above

[18] = Drug uptake in tumor of human NCI-H838 cells xenografted SCID mouse model at 10 mg/kg, iv measured after 48 hrs by LC-MS/MS analysis; assay type: ADME, organism-based, Neoplasm; conditions: read-out: Drug uptake
[19] = Drug uptake in tumor of human NCI-H838 cells xenografted SCID mouse model at 10 mg/kg, iv measured after 168 hrs by LC-MS/MS analysis; assay type: ADME, organism-based, Neoplasm; conditions: read-out: Drug uptake
[20] = Plasma concentration in SCID mouse xenografted with human NCI-H838 cells at 10 mg/kg, iv measured after 168 hrs by LC-MS/MS analysis; assay type: ADME, organism-based; conditions: SCID, plasma
[21] = Plasma concentration in SCID mouse xenografted with human NCI-H838 cells at 10 mg/kg, iv measured after 48 hrs by LC-MS/MS analysis; assay type: ADME, organism-based
[22] = target: T1, von Hippel-Lindau disease tumor suppressor/SWI/SNF-related matrix-associated actin-dependent regulator of chromatin subfamily A member 4; experiment: PROTAC activity at SMARCA4/VHL1 in human HeLa cells assessed as protein degradation after 2 hrs by Nano-Glo HiBiT lytic detection assay; assay type: cell-based

Chain of von Hippel-Lindau disease tumor suppressor (P40337 whole entry): as above

Structure (SMILES): Cc1ncsc1-c1ccc([C@H](C)NC(=O)[C@@H]2C[C@@H](O)CN2C(=O)[C@@H](NC(=O)[C@H]2CC[C@H](CN3CC4(CCC(n5cc(-c6cc(-c7ccccc7O)nnc6N)cn5)CC4)C3)CC2)C(C)(C)C)cc1
GI50 (NCI-H1792 [2]): > 10000 nM | GI50 [3]: 152 nM | Imax [4]: 81% | Imax [5]: 87% | GI50 (SK-MEL-28 [6]): > 10000 nM | Imax (SK-MEL-28 [7]): 15% | Imax (NCI-H1792 [8]): 25% | GI50 [9]: 12 nM | Imax [10]: 77% | Activity (NCI-H838): Active | GI50 (SK-MEL-5): 16 nM | GI50 [11]: 43 nM | Imax [12]: 40% | GI50 [13]: > 10000 nM | GI50 [14]: 123 nM | Imax [15]: 70%

Structure (SMILES): Cc1ncsc1-c1ccc([C@H](CN2CCOCC2)NC(=O)[C@@H]2C[C@@H](O)CN2C(=O)[C@H](C2CCOCC2)n2cc([C@H]3CC[C@H](CN4CCC(c5ccc6c(c5)-n5c(nc(=O)c7c(Cl)cccc75)C65CCCCC5)CC4)CC3)nn2)cc1
DC50 [16]: > 1000 nM | DC50 [17]: 0.1 nM | concentration at 48 h [18]: 491 ng/mL | concentration at 168 h [19]: 65 ng/mL | concentration at 168 h [20]: 2.6 ng/mL | concentration at 48 h [21]: 30 ng/mL

Structure (SMILES): Cc1ncsc1-c1ccc([C@H](CN2CCOCC2)NC(=O)[C@@H]2C[C@H](O)CN2C(=O)[C@@H](n2cc([C@H]3CC[C@H](CN4CCC(c5ccc6c(c5)C5(CCCCC5)c5nc(=O)c7c(Cl)cccc7n5-6)CC4)CC3)nn2)C(C)(C)C)cc1
DC50 [22]: Not_active

More lines, now with the values ahead:

IC50 [1]: 16.1 nM
Structure (SMILES): Cc1cn([C@H](C(=O)N2C[C@H](O)C[C@H]2C(=O)N[C@@H](C)c2ccc(-c3scnc3C)cc2)C(C)(C)C)nn1

IC50 [1]: 18.9 nM
Structure (SMILES): Cc1ncsc1-c1ccc([C@H](C)NC(=O)[C@@H]2C[C@@H](O)CN2C(=O)[C@@H](n2cc(C3CC3)nn2)C(C)(C)C)cc1

Reference: ChEMBL document CHEMBL6096675 (J Med Chem, 2025)
